From patent US6989263B1, “Method for identifying and using compounds that inactivate HIV-1 and other retroviruses by attacking highly conserved zinc fingers in the viral nucleocapsid protein” (The United States of America as represented by the …, priority 1994, dated 2006) come the findings set out here.

The structures appear in SMILES notation.

The target of one assay is T1, p7NC (Human immunodeficiency virus type 1 group M subtype B, UniProt P05888).
T1 construct: The NC protein of HIV-1 (MN) p7NC was expressed in E. coli; made in house; host or cells: E. coli (vector pMAL-c)
Put plainly: HPLC analysis of reaction products of purified p7NC with reagent. The assay is classed as biochemical, HIV-1. Summed up: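 Purified zinc-reconstituted p7NC (63 μM) incubated 10 min with reagent at 6:1 reagent:protein; products resolved by reversed-phase C-18 HPLC at pH 2 (0.05% TFA) with acetonitrile gradient. Rated fast (full conversion), slow (>10% native remaining) or very slow (>50% native remaining).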

Assay [1] concerns the target T2, HIV NC protein in intact virus (Human immunodeficiency virus type 1 group M subtype B, UniProt P05888).
T2 construct: endogenous in cells; host or cells: intact HIV virions
The assay is described as follows: Cross-linking of NC protein in intact HIV (non-reducing gel-mobility shift, western blot). The class given is biochemical, HIV-1. The source says: Purified concentrated retrovirus and antisera against the purified NC protein of the virus can be used to test the ability of a specific compound to penetrate the virus and react with the NC protein by forming disulfide complexes in the core of the virus. The compound is mixed with the whole retrovirus under reaction conditions appropriate for the compound. The virus is then removed from the reagent by centrifugation and disrupted in, e.g, standard SDS-PAGE sample buffer with (reduced) and without (non-reduced) 2-mercaptoethanol. The viral proteins are then separated by standard SDS-PAGE and the sample examined for the presence or absence of the monomeric NC protein in the non-reduced sample. Depending upon the virus used in the experiment and the conditions of electrophoresis, the NC protein can be visualized by protein staining methods, or by immuno-blot (e.g., western) methods. Compounds which react with the NC protein by attacking the zinc finger complexes and forming disulfide cross-linked products (i.e., which generate multimers in the mobility shift assay) inactivate the virus. Thus, compounds of interest (i.e., those which cause cross-linking) reduced the amount of monomeric NC protein detected.
In order to determine whether HIV-1MN was inactivated by NOBA, the virus was incubated with varying concentrations of NOBA (3.0, 0.3, 0.03 and 0 mM) as in Table 1. The reaction products were pelleted by centrifugation, and separated by SDS-PAGE under reducing (2% 2-mercaptoethanol, panel A), or non-reducing conditions (panel B). p7NC was visualized by immunoblot analysis using monospecific rabbit antisera to the purified NC proteins as per L. E. Henderson et al., J. Virol. 66:1856 (1992).
Disulfide reagents were further tested for their ability to disrupt NC structure in the virus, based on their ability to cause inter-NC cysteine disulfide bonds (i.e., cross-linking) in the intact virus. The formation of inter-NC cysteine disulfides creates NC multimers, which migrate through a non-reducing gel at a different rate than NC monomers, as described above. Intact HIV virus (generally 12.5 μM) was exposed to the specified reagent (generally 25 μM) for varying lengths of time and electrophoresed through a non-reducing SDS-polyacrylamide gel. HIV NC monomers and multimers were visualized by western blot analysis as described above in Example 3. The approximate time required to cross-link one-half of the NC proteins in the virus at the specified reaction conditions was then determined. […] The top number in the cells of the X-link column in Table 2 refers to the approximate time in minutes required for one-half of the HIV NC proteins to become cross-linked.
In general terms: Immunoblotting shows a protein as a band on a membrane.

For `NC(=O)c1cccc(N=O)c1` [NOBA, 3-nitrosobenzamide], on p7NC, the “reaction with purified p7NC (HPLC), in words” value was “oxidizes p7NC to products eluting as peaks A and B”. Further, in assay [1], the “cross-linking of the HIV-1 NC protein in intact virus (gel-mobility shift), in words” value is “caused a cross-linking of the HIV-1 NC protein”. In assay [1] (HIV-1MN, NOBA 3.0, 0.3, 0.03 mM, immunoblot), the “amounts of detected p7NC under non-reducing conditions” value is reported as “decreased with increasing NOBA concentration”.
